Test results: patent US11078202B2, “β-lactamase inhibitor and use thereof” (priority 2018, dated 2021)
Structures can show the parent of a compound that is named as a salt.

How the values were obtained:
Format in all cases: cell-based
[1] = system: Klebsiella pneumoniae XNWB 0004; test: MIC assay of test compounds combined with imipenem (4 μg/mL); conditions: imipenem 4 μg/mL fixed
How it was run: (§1)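 Strains were revived from −80 °C stocks on TSA, subcultured, and single colonies were resuspended in saline to OD600 0.1-0.15. After a 300-fold dilution in 1.1×CAMHB, cells were combined with diluted compound and a fixed antibiotic. Growth was assessed after 16-20 h at 35±2 °C.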

[2] = system: Klebsiella pneumoniae XNWB 0003; test: as above; conditions: imipenem 4 μg/mL fixed
How it was run: as §1

[3] = system: Klebsiella pneumoniae XNWB 0002; test: as above; conditions: imipenem 4 μg/mL fixed
How it was run: as §1

[4] = system: Acinetobacter baumannii XNWB 0007; test: as above; conditions: imipenem 4 μg/mL fixed
How it was run: as §1

[5] = system: Klebsiella pneumoniae XNWB 0005; test: as above; conditions: imipenem 4 μg/mL fixed
How it was run: as §1

[6] = system: Pseudomonas aeruginosa XNWB 0008; test: as above; conditions: imipenem 4 μg/mL fixed
How it was run: as §1

[7] = system: Klebsiella pneumoniae XNWB 0001; test: as above; conditions: imipenem 4 μg/mL fixed
How it was run: as §1

[8] = system: Klebsiella pneumoniae XNWB 0006; test: as above; conditions: imipenem 4 μg/mL fixed
How it was run: as §1

[9] = system: Klebsiella pneumoniae XNWB 0004; test: MIC assay of test compounds combined with ceftazidime (8 μg/mL); conditions: ceftazidime 8 μg/mL fixed
How it was run: as §1

[10] = system: Klebsiella pneumoniae XNWB 0003; test: as above; conditions: ceftazidime 8 μg/mL fixed
How it was run: as §1

[11] = system: Klebsiella pneumoniae XNWB 0002; test: as above; conditions: ceftazidime 8 μg/mL fixed
How it was run: as §1

[12] = system: Acinetobacter baumannii XNWB 0007; test: as above; conditions: ceftazidime 8 μg/mL fixed
How it was run: as §1

[13] = system: Klebsiella pneumoniae XNWB 0005; test: as above; conditions: ceftazidime 8 μg/mL fixed
How it was run: as §1

[14] = system: Pseudomonas aeruginosa XNWB 0008; test: as above; conditions: ceftazidime 8 μg/mL fixed
How it was run: as §1

[15] = system: Klebsiella pneumoniae XNWB 0001; test: as above; conditions: ceftazidime 8 μg/mL fixed
How it was run: as §1

[16] = system: Klebsiella pneumoniae XNWB 0006; test: as above; conditions: ceftazidime 8 μg/mL fixed
How it was run: as §1

[17] = system: Escherichia coli XNWB 0010; test: MIC assay of test compounds combined with ampicillin (8 μg/mL); conditions: ampicillin 8 μg/mL fixed
Description: (§2) The bacterial strains used for the minimum inhibitory concentration (MIC) test were frozen in a −80° C. ULT freezer and thawed 2 days before use. A small amount of frozen bacterial strains were scraped using a sterile inoculating loop, streaked onto a TSA solid culture dish for inoculation, and then cultured for 20-24 h at 35±2° C. in a normal atmospheric environment.
(§3) 5-10 colonies with similar morphology were picked from the culture dish using a sterile inoculating loop and then re-streaked onto a suitable solid culture dish. Then the dish was placed into a normal incubator for culture for 20-24 h at 35±2° C.
(§4) 5-10 single bacterial colonies were picked from the solid culture dish, resuspended in 500 μL of 0.9% NaCl, and adjusted to an OD600 of 0.1-0.15 with a spectrophotometer.
(§5) The bacteria were then diluted 300-fold with 1.1×CAMHB.
(§6) Test compounds of columns A-H: having a highest final test concentration of 64 μg/mL or 32 μg/mL, 2-fold diluted.
(§7) Dilution of test compounds: All test compounds were dissolved and diluted in dimethylsulfoxide (DMSO). 170 μL of 3.2 mg/mL (50*64 μg/mL) compound was transferred to wells (A1-H1) of column 1 of a dilution master plate and then 85 μL of DMSO was transferred to wells of other columns. Each compound was diluted 2-fold in sequence (i.e., 85 μL of compound was pipetted from column 1 into column 2 and mixed uniformly, 85 μL of compound was pipetted from column 2 into column 3 and mixed uniformly, then 85 μL of compound was pipetted from column 3 into column 4 and mixed uniformly, and so on until the dilution was done in column 11).
(§8) Preparation of an additive of ampicillin: Ampicillin was dissolved in ddH2O. 30 μL of 100 μg/mL (12.5×8 μg/mL) ampicillin was transferred to columns 1-11 of an additive plate, followed by the addition of 30 μL of ddH2O to column 12.
(§9) 2 μL of each compound in the dilution master plate of the test compounds was transferred to the corresponding well of the assay plates. In the mean time, 2 μL of 100% DMSO was transferred to the compound-free wells (GC and SC wells). (1) 8 μL of imipenem in the additive plate of imipenem was transferred to the corresponding wells of the assay plates; (2) 8 μL of ceftazidime in the additive plate of ceftazidime was transferred to the corresponding wells of the assay plates; (3) 8 μL of ampicillin in the additive plate of ampicillin was transferred to the corresponding wells of the assay plates.
(§10) 90 μL of corresponding bacterial inocula were added to wells (except for SC wells) of the assay plates.
(§11) After addition, the 6 assay plates were covered by sterile covers. The mixtures in the assay plates were centrifuged by a centrifuge at 1000 rpm for 30 s, and mixed uniformly by oscillating with a microplate oscillator at 800 rpm for 1 min, and then cultured in a common incubator for 16-20 h at 35±2° C.
(§12) The minimum inhibitory concentration of each compound was recorded by reference to guidelines from the Clinical and Laboratory Standards Institute.
(§13) The minimum inhibitory concentrations of the compounds of the present invention and antibiotics (imipenem, ceftazidime, and ampicillin) against 11 strains of bacteria were tested in this study by reference to the medium microdilution method as indicated by the Clinical and Laboratory Standards Institute. The effect of the test compounds in combination with imipenem, ceftazidime, and ampicillin was also tested. Compounds were diluted two-fold in 96-well plates from the highest detection concentration of 64 μg/mL. The test compounds were tested in combination with a fixed concentration of imipenem (4 μg/mL), ceftazidime (8 μg/mL), and ampicillin (8 μg/mL). The bacterial inocula in the assay plates were resuscitated from TSA and diluted in CAMHB, while growth controls (GC wells) and sterile controls (SC wells) were set up in the assay plates. […]

[18] = system: Escherichia coli XNWB 0009; test: as above; conditions: ampicillin 8 μg/mL fixed
Description: as §2, §3, §4, §5, §6, §7, §8, §9, §10, §11, §12, §13

[19] = system: Enterobacter aerogenes XNWB 0011; test: as above; conditions: ampicillin 8 μg/mL fixed
Description: as §2, §3, §4, §5, §6, §7, §8, §9, §10, §11, §12, §13

## O=C1N2C[C@H](N1OS(=O)(=O)O)C1(CC1)C[C@H]2c1cc(C2CCNC2)on1 (stereo partly drawn) [Example 45, (1R,4S)-6-oxo-4-(5-(pyrrolidin-3-yl)isoxazol-3-yl)-5,7-diazaspiro[bicyclo[3.2.1]octane-2,1′-cyclopropan]-7-yl sulfate]
[1]
  The minimum concentration of test compounds combined with imipenem (4 μg/mL) for bacteriostasis: A (A: <8 μg/mL)
[2]
  The minimum concentration of test compounds combined with imipenem (4 μg/mL) for bacteriostasis: A (A: <8 μg/mL)
[3]
  The minimum concentration of test compounds combined with imipenem (4 μg/mL) for bacteriostasis: A (A: <8 μg/mL)
[4]
  The minimum concentration of test compounds combined with imipenem (4 μg/mL) for bacteriostasis: C (C: 16-128 μg/mL)
[5]
  The minimum concentration of test compounds combined with imipenem (4 μg/mL) for bacteriostasis: A (A: <8 μg/mL)
[6]
  The minimum concentration of test compounds combined with imipenem (4 μg/mL) for bacteriostasis: A (A: <8 μg/mL)
[7]
  The minimum concentration of test compounds combined with imipenem (4 μg/mL) for bacteriostasis: A (A: <8 μg/mL)
[8]
  The minimum concentration of test compounds combined with imipenem (4 μg/mL) for bacteriostasis: A (A: <8 μg/mL)
[9]
  The minimum concentration of test compounds combined with ceftazidime (8 μg/mL) for bacteriostasis: B (B: 8-16 μg/mL)
[10]
  The minimum concentration of test compounds combined with ceftazidime (8 μg/mL) for bacteriostasis: A (A: <8 μg/mL)
[11]
  The minimum concentration of test compounds combined with ceftazidime (8 μg/mL) for bacteriostasis: A (A: <8 μg/mL)
[12]
  The minimum concentration of test compounds combined with ceftazidime (8 μg/mL) for bacteriostasis: C (C: 16-128 μg/mL)
[13]
  The minimum concentration of test compounds combined with ceftazidime (8 μg/mL) for bacteriostasis: A (A: <8 μg/mL)
[14]
  The minimum concentration of test compounds combined with ceftazidime (8 μg/mL) for bacteriostasis: B (B: 8-16 μg/mL)
[15]
  The minimum concentration of test compounds combined with ceftazidime (8 μg/mL) for bacteriostasis: A (A: <8 μg/mL)
[16]
  The minimum concentration of test compounds combined with ceftazidime (8 μg/mL) for bacteriostasis: A (A: <8 μg/mL)
[17]
  The minimum concentration of test compounds combined with ampicillin (8 μg/mL) for bacteriostasis: A (A: <8 μg/mL)
[18]
  The minimum concentration of test compounds combined with ampicillin (8 μg/mL) for bacteriostasis: A (A: <8 μg/mL)
[19]
  The minimum concentration of test compounds combined with ampicillin (8 μg/mL) for bacteriostasis: A (A: <8 μg/mL)

## NCCc1cc([C@@H]2CC3(CC3)[C@@H]3CN2C(=O)N3OS(=O)(=O)O)no1 [Example 41, (1R,4S)-4-(5-(2-aminoethyl)isoxazol-3-yl)-6-oxo-5,7-diazaspiro[bicyclo[3.2.1]octane-2,1′-cyclopropan]-7-yl sulfate]
[1]
  The minimum concentration of test compounds combined with imipenem (4 μg/mL) for bacteriostasis: A (A: <8 μg/mL)
[2]
  The minimum concentration of test compounds combined with imipenem (4 μg/mL) for bacteriostasis: A (A: <8 μg/mL)
[3]
  The minimum concentration of test compounds combined with imipenem (4 μg/mL) for bacteriostasis: A (A: <8 μg/mL)
[4]
  The minimum concentration of test compounds combined with imipenem (4 μg/mL) for bacteriostasis: C (C: 16-128 μg/mL)
[5]
  The minimum concentration of test compounds combined with imipenem (4 μg/mL) for bacteriostasis: A (A: <8 μg/mL)
[6]
  The minimum concentration of test compounds combined with imipenem (4 μg/mL) for bacteriostasis: A (A: <8 μg/mL)
[7]
  The minimum concentration of test compounds combined with imipenem (4 μg/mL) for bacteriostasis: A (A: <8 μg/mL)
[8]
  The minimum concentration of test compounds combined with imipenem (4 μg/mL) for bacteriostasis: A (A: <8 μg/mL)
[9]
  The minimum concentration of test compounds combined with ceftazidime (8 μg/mL) for bacteriostasis: B (B: 8-16 μg/mL)
[10]
  The minimum concentration of test compounds combined with ceftazidime (8 μg/mL) for bacteriostasis: A (A: <8 μg/mL)
[11]
  The minimum concentration of test compounds combined with ceftazidime (8 μg/mL) for bacteriostasis: A (A: <8 μg/mL)
[12]
  The minimum concentration of test compounds combined with ceftazidime (8 μg/mL) for bacteriostasis: C (C: 16-128 μg/mL)
[13]
  The minimum concentration of test compounds combined with ceftazidime (8 μg/mL) for bacteriostasis: A (A: <8 μg/mL)
[14]
  The minimum concentration of test compounds combined with ceftazidime (8 μg/mL) for bacteriostasis: C (C: 16-128 μg/mL)
[15]
  The minimum concentration of test compounds combined with ceftazidime (8 μg/mL) for bacteriostasis: A (A: <8 μg/mL)
[16]
  The minimum concentration of test compounds combined with ceftazidime (8 μg/mL) for bacteriostasis: A (A: <8 μg/mL)
[17]
  The minimum concentration of test compounds combined with ampicillin (8 μg/mL) for bacteriostasis: A (A: <8 μg/mL)
[18]
  The minimum concentration of test compounds combined with ampicillin (8 μg/mL) for bacteriostasis: A (A: <8 μg/mL)
[19]
  The minimum concentration of test compounds combined with ampicillin (8 μg/mL) for bacteriostasis: B (B: 8-16 μg/mL)
